From ChEMBL document CHEMBL1142647, “Potent pyrimidinetrione-based inhibitors of MMP-13 with enhanced selectivity over MMP-14” (Bioorg Med Chem Lett, 2005) come the findings set out here.

This test concerns the target Collagenase 3 (Homo sapiens, UniProt P45452). In words: Inhibitory concentration against matrix metalloprotease 13.

pIC50: −log10 of the molar value.

A word on the pIC50: it is the negative decadic logarithm of the IC50, by convention in mol/L. A higher pIC50 goes with a small IC50. In turn, `CCCCC1(Oc2ccc(Oc3ccc(F)cc3)cc2)C(=O)NC(=O)NC1=O` gave a negative logarithm of the IC50 (pIC50) of 8.70. `CC1(Oc2ccc(Cl)cc2)C(=O)NC(=O)NC1=O` gave a negative logarithm of the IC50 (pIC50) of 6.41.
